Source: patent publication US8007800B2, “Methods for treating bone cancer pain by administering a nerve growth factor antagonist antibody” (Pfizer Inc., priority 2004, dated 2011)

Columns and labels:
[1] = tested on: C3H/HeJ mice injected with NCTC 2472 osteolytic murine sarcoma cells into the femur; experiment: Example 2: murine sarcoma bone cancer pain model, ongoing and palpation-evoked pain behaviors; assay type: in vivo, mouse; details: days 10 and 14, vs sarcoma+vehicle
human NGF = human NGF (Homo sapiens, UniProt P01138); experiment: Binding affinity of Fab fragments to NGF (BIAcore surface plasmon resonance); details: measured using Fab fragments
Description: The binding affinity of an anti-NGF antibody to NGF (such as hNGF) can be about 0.10 to about 1.0 nM, about 0.10 nM to about 0.80 nM, about 0.15 to about 0.75 nM and about 0.18 to about 0.72 nM. […] In some embodiment, the binding affinity is about 10 nM. In other embodiments, the binding affinity is less than about 10 nM. […] As is well known in the art, binding affinity can be expressed as KD, or dissociation constant, and an increased binding affinity corresponds to a decreased KD.
One way of determining binding affinity of antibodies to NGF is by measuring binding affinity of monofunctional Fab fragments of the antibody. To obtain monofunctional Fab fragments, an antibody (for example, IgG) can be cleaved with papain or expressed recombinantly. The affinity of an anti-NGF Fab fragment of an antibody can be determined by surface plasmon resonance (BIAcore3000™ surface plasmon resonance (SPR) system, BIAcore, INC, Piscaway N.J.). CM5 chips can be activated with N-ethyl-N′-(3-dimethylaminopropyl)-carbodiinide hydrochloride (EDC) and N-hydroxysuccinimide (NHS) according to the supplier's instructions. […] The concentrations of the Fab proteins are determined by ELISA and/or SDS-PAGE electrophoresis using a Fab of known concentration (as determined by amino acid analysis) as a standard. […] Equilibrium dissociation constant (KD) values are calculated as koff/kon. […]

human NGF, sequence (P01138 122-241): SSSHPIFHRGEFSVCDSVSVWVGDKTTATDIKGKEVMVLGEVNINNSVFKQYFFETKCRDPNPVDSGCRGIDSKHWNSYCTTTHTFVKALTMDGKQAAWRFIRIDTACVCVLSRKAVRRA

Row | Compound | ongoing and movement-evoked guarding behaviors ([1]; morphine sulfate 10 mg/kg i.p. 15 min prior to testing) | ongoing and movement-evoked guarding behaviors ([1]; morphine sulfate 30 mg/kg i.p. 15 min prior to testing) | Kd (human NGF)
1 | CN1CC[C@]23c4c5ccc(O)c4O[C@H]2[C@@H](O)C=C[C@H]3[C@H]1C5.O=S(=O)(O)O [morphine sulfate] | significantly reduced | significantly reduced | 
2 | antibody E3: humanized mouse anti-NGF monoclonal antibody; human IgG2a constant region A330P331 to S330S331, kappa light chain, variable regions SEQ ID NO:1 and 2 |  |  | ~0.07 nM
